Measurements: publication PMC3234597, “Two Panels of Steroid Receptor Luciferase Reporter Cell Lines for Compound Profiling” (Combinatorial Chemistry & High Throughput Screening, 2011)
Entries after “also recorded” stand apart in the source; their conditions may differ. Like-named read-outs stand apart in the source and are kept apart here.

Experiments:
Type in all cases: cell-based
[1] = biological target: T1, ERβ-LBD fused to Gal4-DBD (Homo sapiens, UniProt Q92731); test: U2OS-ERβ-LBD/9xGal4UAS luciferase reporter cell line; conditions: for EC50: read-out: Log EC50 (converted)
T1 construct: region comprising ERβ-LBD and a piece of the hinge region; expressed in transfected cells; host or cells: U2OS

human AR (full-length) = biological target: T2, human AR (full-length) (Homo sapiens, UniProt P10275); test: U2OS-AR/3xGRE luciferase reporter cell line (full-length receptor); conditions: for Log EC50: agonist mode, 20 h, log10 of molar EC50, mean ± SEM; for Log EC50 / Log IC50: AR/3xGRE; for Log IC50: antagonist mode, in the presence of 0.05 nM dihydrotestosterone, log10 of molar IC50, mean ± SEM
T2 construct: expression vectors encoding full-length steroid receptors: pcDNA3-hAR and pcDNA3-hGR; host or cells: U2OS
T2 sequence (P10275 1-920): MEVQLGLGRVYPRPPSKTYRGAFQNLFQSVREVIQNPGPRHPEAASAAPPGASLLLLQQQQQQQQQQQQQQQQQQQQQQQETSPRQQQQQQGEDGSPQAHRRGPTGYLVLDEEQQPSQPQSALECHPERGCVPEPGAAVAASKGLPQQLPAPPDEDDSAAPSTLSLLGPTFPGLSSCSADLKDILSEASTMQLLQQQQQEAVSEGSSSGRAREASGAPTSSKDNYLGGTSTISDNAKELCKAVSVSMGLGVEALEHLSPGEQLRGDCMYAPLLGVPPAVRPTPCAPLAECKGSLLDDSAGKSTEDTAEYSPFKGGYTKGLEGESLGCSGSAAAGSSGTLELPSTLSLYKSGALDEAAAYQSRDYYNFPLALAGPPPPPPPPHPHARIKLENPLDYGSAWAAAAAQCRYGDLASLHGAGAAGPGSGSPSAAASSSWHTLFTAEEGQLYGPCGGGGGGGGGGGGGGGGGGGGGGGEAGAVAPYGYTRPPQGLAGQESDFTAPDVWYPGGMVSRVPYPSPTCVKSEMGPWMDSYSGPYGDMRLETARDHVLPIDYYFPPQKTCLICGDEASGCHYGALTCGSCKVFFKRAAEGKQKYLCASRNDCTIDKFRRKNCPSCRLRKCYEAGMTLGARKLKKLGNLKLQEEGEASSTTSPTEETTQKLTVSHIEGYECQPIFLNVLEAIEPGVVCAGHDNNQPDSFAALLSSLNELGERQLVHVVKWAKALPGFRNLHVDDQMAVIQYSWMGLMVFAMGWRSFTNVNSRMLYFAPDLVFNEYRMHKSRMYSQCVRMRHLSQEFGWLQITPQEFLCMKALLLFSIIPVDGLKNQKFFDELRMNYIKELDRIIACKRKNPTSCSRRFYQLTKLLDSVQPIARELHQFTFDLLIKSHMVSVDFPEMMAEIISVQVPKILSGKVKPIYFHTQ

GR-LBD fused to Gal4-DBD = biological target: T3, GR-LBD fused to Gal4-DBD (Homo sapiens, UniProt P04150); test: U2OS-GR-LBD/9xGal4UAS luciferase reporter cell line; conditions: for Log EC50: agonist mode, 20 h, log10 of molar EC50, mean ± SEM; for Log EC50 / Log IC50: GR-LBD/9xGal4UAS; for Log IC50: antagonist mode, in the presence of 5 nM dexamethasone, log10 of molar IC50, mean ± SEM
T3 construct: expressed in transfected cells; host or cells: U2OS
T3 sequence (P04150 524-758 limits assumed): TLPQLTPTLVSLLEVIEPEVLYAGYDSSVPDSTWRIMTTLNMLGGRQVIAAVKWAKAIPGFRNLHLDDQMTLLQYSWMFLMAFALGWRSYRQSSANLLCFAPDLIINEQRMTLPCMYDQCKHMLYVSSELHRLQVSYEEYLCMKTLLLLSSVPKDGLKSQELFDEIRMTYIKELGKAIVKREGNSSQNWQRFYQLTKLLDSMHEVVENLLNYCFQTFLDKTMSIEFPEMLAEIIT

MR-LBD fused to Gal4-DBD = biological target: T4, MR-LBD fused to Gal4-DBD (Homo sapiens, UniProt P08235); test: U2OS-MR-LBD/9xGal4UAS luciferase reporter cell line; conditions: for Log EC50: agonist mode, 20 h, log10 of molar EC50, mean ± SEM; for Log EC50 / Log IC50: MR-LBD/9xGal4UAS; for Log IC50: antagonist mode, in the presence of 1 nM aldosterone, log10 of molar IC50, mean ± SEM
T4 construct: MR-LBD was cloned by RT-PCR from total RNA isolated from HEK293 cells; expressed in transfected cells; host or cells: U2OS
T4 sequence (P08235 726-964 limits assumed): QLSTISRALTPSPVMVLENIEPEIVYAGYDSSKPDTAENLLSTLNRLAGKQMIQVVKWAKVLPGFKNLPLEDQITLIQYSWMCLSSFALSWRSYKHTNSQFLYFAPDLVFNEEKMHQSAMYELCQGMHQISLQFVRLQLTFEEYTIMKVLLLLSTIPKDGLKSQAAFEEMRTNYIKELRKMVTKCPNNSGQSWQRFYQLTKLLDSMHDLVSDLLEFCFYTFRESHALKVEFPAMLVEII

PR-LBD fused to Gal4-DBD = biological target: T5, PR-LBD fused to Gal4-DBD (Homo sapiens, UniProt P06401); test: U2OS-PR-LBD/9xGal4UAS luciferase reporter cell line; conditions: for Log EC50: agonist mode, 20 h, log10 of molar EC50, mean ± SEM
T5 construct: PR-LBD region was PCR amplified using the following primer combination; host or cells: U2OS
T5 sequence (P06401 679-913 limits assumed): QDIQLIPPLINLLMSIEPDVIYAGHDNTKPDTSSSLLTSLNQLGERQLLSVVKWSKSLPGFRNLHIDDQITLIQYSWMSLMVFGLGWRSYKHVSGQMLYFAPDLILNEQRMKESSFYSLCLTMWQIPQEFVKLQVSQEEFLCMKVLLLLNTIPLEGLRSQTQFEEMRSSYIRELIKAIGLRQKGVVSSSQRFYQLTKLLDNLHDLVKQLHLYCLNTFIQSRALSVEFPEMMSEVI

[2] = biological target: T6, ERα^wt-LBD fused to Gal4-DBD (Homo sapiens, UniProt P03372); test: U2OS-ERα^wt-LBD/9xGal4UAS luciferase reporter cell line
T6 construct: ERα-LBD (amino acids 303-595) based on GenBank NM_000125; expressed in transfected cells; host or cells: U2OS
T6 sequence (P03372 303-595): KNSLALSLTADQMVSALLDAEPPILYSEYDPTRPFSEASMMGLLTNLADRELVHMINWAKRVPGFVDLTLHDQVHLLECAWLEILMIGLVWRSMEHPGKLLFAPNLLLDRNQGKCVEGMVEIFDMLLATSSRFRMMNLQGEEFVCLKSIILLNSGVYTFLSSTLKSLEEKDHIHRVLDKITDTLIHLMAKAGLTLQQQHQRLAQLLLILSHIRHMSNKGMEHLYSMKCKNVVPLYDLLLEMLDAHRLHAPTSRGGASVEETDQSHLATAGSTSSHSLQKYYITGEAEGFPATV

[3] = antagonist mode, PR-LBD/9xGal4UAS, log10 of molar IC50, mean ± SEM
[4] = antagonist mode, PR-LBD/9xGal4UAS, log10 of molar IC50, mean ± SEM, read-out: Log IC50 (converted)

T1 sequence (Q92731 264-498 limits assumed): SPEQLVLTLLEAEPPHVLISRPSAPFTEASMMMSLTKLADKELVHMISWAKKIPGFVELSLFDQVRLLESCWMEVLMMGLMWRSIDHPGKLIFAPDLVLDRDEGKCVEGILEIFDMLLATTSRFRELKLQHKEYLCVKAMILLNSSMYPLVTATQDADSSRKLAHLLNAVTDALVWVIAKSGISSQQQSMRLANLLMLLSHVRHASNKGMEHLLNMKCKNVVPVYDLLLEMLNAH

SMILES	Log EC50 (MR-LBD fused to Gal4-DBD) [M]	Log IC50 (MR-LBD fused to Gal4-DBD) [M]	Log EC50 (PR-LBD fused to Gal4-DBD; PR-LBD/9xGal4UAS) [M]	Log IC50 (PR-LBD fused to Gal4-DBD; [3]) [M]	EC50 [2] [µM]	EC50 [1] [µM]	EC50 (human AR (full-length)) [µM]	EC50 (GR-LBD fused to Gal4-DBD; read-out: Log EC50 (converted)) [µM]	IC50 (PR-LBD fused to Gal4-DBD; [4]) [µM]	EC50 (PR-LBD fused to Gal4-DBD; read-out: Log EC50 (converted)) [nM]	EC50 (MR-LBD fused to Gal4-DBD; read-out: Log EC50 (converted)) [µM]	further results
CC[C@@H]1Cc2cc(O)ccc2C2=C1c1ccc(O)cc1C[C@H]2CC (relative stereo) [R.R-THC, (R,R)-cis-diethyltetrahydro-2,8-chrysenediol]	> -5.00	-5.08 ± 0.13	> -5.00	-5.52 ± 0.70								Log EC50 ([1]; agonist mode, ERβ-LBD/9xGal4UAS, 20 h, log10 of molar EC50, mean ± SEM): > -5.00 M; Log IC50 ([1]; antagonist mode, ERβ-LBD/9xGal4UAS, in the presence of 5 nM E2, log10 of molar IC50, mean ± SEM): -7.39 ± 0.15 M; Log EC50 (human AR (full-length)): > -5.00 M; Log IC50 (human AR (full-length)): -5.26 ± 0.28 M; Log EC50 (GR-LBD fused to Gal4-DBD): > -5.00 M; Log IC50 (GR-LBD fused to Gal4-DBD): > -5.00 M
C[C@]12CCC(=O)C=C1CC[C@@H]1[C@@H]2[C@@H](O)C[C@]2(C=O)[C@@H](C(=O)CO)CC[C@@H]12 [Aldosterone, aldosterone]					> 10	> 10	> 10	1.15	3.72	1120		
C[C@H]1C[C@H]2[C@@H]3CCC4=CC(=O)C=C[C@]4(C)[C@@]3(Cl)[C@@H](O)C[C@]2(C)[C@@]1(O)C(=O)CO [Beclomethasone, beclomethasone]	-7.95 ± 0.10	-7.64 ± 0.10	-5.20 ± 0.05	> -5.00								Log EC50 ([2]; agonist mode, ERα^wt-LBD/9xGal4UAS, 20 h, log10 of molar EC50, mean ± SEM): > -5.00 M; Log IC50 ([2]; antagonist mode, ERα^wt-LBD/9xGal4UAS, in the presence of 1 nM E2, log10 of molar IC50, mean ± SEM): > -5.00 M; activity profile in words (MR-LBD fused to Gal4-DBD; MR-LBD expressing reporter cell line, agonist and antagonist mode): only weakly and partially activated; also recorded: pronounced full antagonist effect
C[C@]12C[C@H](O)[C@H]3[C@@H](CCC4=CC(=O)CC[C@@]43C)[C@@H]1CC[C@@H]2C(=O)CO [Corticosterone, corticosterone]					> 10	> 10		0.269	> 10	72.4	2.63e-05	
C#C[C@]1(O)CC[C@H]2[C@@H]3CCC4=Cc5oncc5C[C@]4(C)[C@H]3CC[C@@]21C [Danazol, danazol]					0.245	> 10		> 10	0.692	91.2	> 10	
O=c1c(-c2ccc(O)cc2)coc2cc(O)cc(O)c12 [Genistein, genistein]							> 10					EC50 (GR-LBD fused to Gal4-DBD): > 10 µM; EC50 (MR-LBD fused to Gal4-DBD): > 10 µM; EC50 (PR-LBD fused to Gal4-DBD): > 10000 nM; IC50 (PR-LBD fused to Gal4-DBD): > 10 µM
C[C@]12CC[C@@H]3c4ccc(O)cc4C[C@@H](CCCCCCCCC[S+]([O-])CCCC(F)(F)C(F)(F)F)[C@H]3[C@@H]1CC[C@@H]2O (stereo partly shown) [ICI 182.780]	> -5.00	> -5.00	> -5.00	> -5.00								Log EC50 (human AR (full-length)): > -5.00 M; Log IC50 (human AR (full-length)): > -5.00 M; Log EC50 (GR-LBD fused to Gal4-DBD): > -5.00 M; Log IC50 (GR-LBD fused to Gal4-DBD): > -5.00 M
CCCc1c(-c2ccc(O)cc2)nn(-c2ccc(O)cc2)c1-c1ccc(O)cc1 [PPT, propyl pyrazole triol]					0.0024	> 10	> 10	> 10	> 10	4270	> 10	
CCC(=O)[C@@]1(C)CC[C@H]2[C@@H]3CCC4=CC(=O)CCC4=C3CC[C@@]21C [Promegestone (R5020), promegestone]					> 10	> 10	> 10	> 10	> 10	0.0129	> 10	
C[C@]12C=CC(=O)C=C1CC[C@H]1[C@@H]3C[C@@H](O)[C@](O)(C(=O)CO)[C@@]3(C)C[C@H](O)[C@@]12F [Triamcinolone, triamcinolone]					> 10			0.0102	> 10	58.9	0.0759	
